Measurements published in patent publication US20240141294A1, “CGMP COMPLIANT PRODUCTION AND EXPANSION OF PLASMACYTOID DENDRITIC CELLS FROM HEMATOPOIETIC STEM AND PROGENITOR CELLS” (AARHUS UNIVERSITET, priority 2021, published 2024).

Tested on: HSPC-pDCs
Assay: RNA-sequencing of HSPC-pDCs generated with or without ascorbic acid
Type: cell-based, human
Experimental: HSPCs were thawed and 1×10^5 cells were seeded in DC medium with or without supplementation of ascorbic acid (AA). Following 16 days of differentiation with or without AA in the medium, pDCs were isolated by immunomagnetic depletion of non-pDCs, and HSPCs-pDCs were then primed for 72 hours with IFN-β/γ. Following priming, HSPC-pDCs were stored in RNAprotect Cell Reagent (Qiagen) at −80° C. until total RNA was extracted using the RNeasy Plus Micro Kit (Qiagen), which efficiently eliminates genomic DNA without the need for DNase treatment. The total RNA was send to BGI Europe for RNA-seq. Here, a non-stranded & polyA-selected mRNA library was prepared from the total RNA and subjected to PE100 sequencing using the BGISEQ platform. The samples generated on average about 4.84 Gb bases per sample. Low quality reads were filtered and the remaining reads were mapped to the genome with an average mapping ratio with the reference genome at 92.74%, the average gene mapping ratio at 79.90%. In total, 18,412 genes were identified. Gene expression was calculated based on the reads, differentially expressed genes and gene ontology analyses were analyzed on BGI's software analysis platform Dr. Tom. HSPCs were thawed and 1×10^5 cells were seeded in DC medium with or without supplementation of ascorbic acid (AA). Following 16 days of differentiation with or without AA in the medium, pDCs were isolated by immunomagnetic depletion of non-pDCs, and HSPCs-pDCs were then primed for 72 hours with IFN-β/γ. Following priming, HSPC-pDCs were stored in RNAprotect Cell Reagent (Qiagen) at −80 degrees until total RNA was extracted using the RNeasy Plus Micro Kit (Qiagen), which efficiently eliminates genomic DNA without the need for DNase treatment. The total RNA was send to BGI Europe for RNA-seq. Here, a non-stranded & polyA-selected mRNA library was prepared from the total RNA and subjected to PE100 sequencing using the BGISEQ platform. The samples generated on average about 4.84 Gb bases per sample. Low quality reads were filtered and the remaining reads were mapped to the genome with an average mapping ratio with the reference genome at 92.74%, the average gene mapping ratio at 79.90%. In total, 18,412 genes were identified. Gene expression was calculated based on the reads, differentially expressed genes and gene ontology analyses were analyzed on BGI's software analysis platform Dr. Tom.

[1] = condition with AA, |log 2FC|>=1 and Qvalue <=0.05

Compound: O=C1O[C@H]([C@@H](O)CO)C(O)=C1O [ascorbic acid]
- number of downregulated genes [1]: 334 genes
- number of upregulated genes [1]: 916 genes
- Log2 (+AA/−AA) (gene ADA2, Qvalue 2.90E−08): 0.759
- +AA FPKM (gene ADA2, −AA FPKM 117.7033): 197.7367 FPKM
- Log2 (+AA/−AA) (gene ALOX5AP, Qvalue 0.002016945): 0.793
- +AA FPKM (gene ALOX5AP, −AA FPKM 210): 364 FPKM
- Log2 (+AA/−AA) (gene ANXA2, Qvalue 9.39E−07): 1.658
- +AA FPKM (gene ANXA2, −AA FPKM 106): 333 FPKM
- Log2 (+AA/−AA) (gene APP, Qvalue 0.015253176): 0.696
- +AA FPKM (gene APP, −AA FPKM 133): 215 FPKM
- Log2 (+AA/−AA) (gene BRI3, Qvalue 0.00802755): 0.724
- +AA FPKM (gene BRI3, −AA FPKM 216): 358 FPKM
- Log2 (+AA/−AA) (gene C1QA, Qvalue 0.002254892): 1.342
- +AA FPKM (gene C1QA, −AA FPKM 91): 230 FPKM
- Log2 (+AA/−AA) (gene C1QB, Qvalue 0.011037205): 1.137
- +AA FPKM (gene C1QB, −AA FPKM 147): 323 FPKM
- Log2 (+AA/−AA) (gene C1QC, Qvalue 0.002547556): 1.551
- +AA FPKM (gene C1QC, −AA FPKM 126): 365 FPKM
- Log2 (+AA/−AA) (gene C1orf162, Qvalue 0.038404809): 0.529
- +AA FPKM (gene C1orf162, −AA FPKM 178): 256 FPKM
- Log2 (+AA/−AA) (gene CD68, Qvalue 3.20E−09): 1.365
- +AA FPKM (gene CD68, −AA FPKM 240): 619 FPKM
- Log2 (+AA/−AA) (gene CD74, Qvalue 3.24E−08): 0.841
- +AA FPKM (gene CD74, −AA FPKM 5008): 8923 FPKM
- Log2 (+AA/−AA) (gene CD81, Qvalue 0.002330558): 1.451
- +AA FPKM (gene CD81, −AA FPKM 85): 235 FPKM
- Log2 (+AA/−AA) (gene CHI3L1, Qvalue 0.024834793): 2.178
- +AA FPKM (gene CHI3L1, −AA FPKM 108): 496 FPKM
- Log2 (+AA/−AA) (gene CTSB, Qvalue 6.81E−09): 1.920
- +AA FPKM (gene CTSB, −AA FPKM 96): 363 FPKM
- Log2 (+AA/−AA) (gene CTSD, Qvalue 1.73E−06): 1.460
- +AA FPKM (gene CTSD, −AA FPKM 323): 893 FPKM
- Log2 (+AA/−AA) (gene CTSH, Qvalue 2.00E−04): 1.227
- +AA FPKM (gene CTSH, −AA FPKM 116): 271 FPKM
- Log2 (+AA/−AA) (gene CTSS, Qvalue 1.80E−04): 0.939
- +AA FPKM (gene CTSS, −AA FPKM 126): 242 FPKM
- Log2 (+AA/−AA) (gene CTSZ, Qvalue 3.93E−08): 1.002
- +AA FPKM (gene CTSZ, −AA FPKM 232): 462 FPKM
- Log2 (+AA/−AA) (gene CYBB, Qvalue 0.018453508): 0.807
- +AA FPKM (gene CYBB, −AA FPKM 184): 322 FPKM
- Log2 (+AA/−AA) (gene DEFA1, Qvalue 6.38E−05): 5.728
- +AA FPKM (gene DEFA1, −AA FPKM 20): 1047 FPKM
- Log2 (+AA/−AA) (gene DEFA3, Qvalue 0.001704486): 4.431
- +AA FPKM (gene DEFA3, −AA FPKM 27): 593 FPKM
- Log2 (+AA/−AA) (gene DEFA4, Qvalue 1.65E−08): 4.651
- +AA FPKM (gene DEFA4, −AA FPKM 39): 975 FPKM
- Log2 (+AA/−AA) (gene EVI2B, Qvalue 0.01888367): 0.294
- +AA FPKM (gene EVI2B, −AA FPKM 193): 236 FPKM
- Log2 (+AA/−AA) (gene FCER1G, Qvalue 0.033270138): 0.509
- +AA FPKM (gene FCER1G, −AA FPKM 961): 1367 FPKM
- Log2 (+AA/−AA) (gene FLNA, Qvalue 0.011692048): 0.372
- +AA FPKM (gene FLNA, −AA FPKM 160.4000): 206.4233 FPKM
- Log2 (+AA/−AA) (gene FTH1, Qvalue 0.00845252): 1.289
- +AA FPKM (gene FTH1, −AA FPKM 1395): 3417 FPKM
- Log2 (+AA/−AA) (gene GRINA, Qvalue 0.006989716): 0.718
- +AA FPKM (gene GRINA, −AA FPKM 130): 214 FPKM
- Log2 (+AA/−AA) (gene GRN, Qvalue 0.015829898): 0.695
- +AA FPKM (gene GRN, −AA FPKM 432): 696 FPKM
- Log2 (+AA/−AA) (gene HLA-DMB, Qvalue 0.022417743): 0.717
- +AA FPKM (gene HLA-DMB, −AA FPKM 188): 307 FPKM
- Log2 (+AA/−AA) (gene HLA-DPA1, Qvalue 6.34E−04): 0.763
- +AA FPKM (gene HLA-DPA1, −AA FPKM 1038): 1750 FPKM
- Log2 (+AA/−AA) (gene HLA-DPB1, Qvalue 0.003235049): 0.785
- +AA FPKM (gene HLA-DPB1, −AA FPKM 227): 388 FPKM
- Log2 (+AA/−AA) (gene HLA-DQA1, Qvalue 0.03140587): 1.374
- +AA FPKM (gene HLA-DQA1, −AA FPKM 161): 414 FPKM
- Log2 (+AA/−AA) (gene HLA-DRB1, Qvalue 1.76E−04): 1.122
- +AA FPKM (gene HLA-DRB1, −AA FPKM 1106): 2401 FPKM
- Log2 (+AA/−AA) (gene HLA-DRB3, Qvalue 0.018823029): 1.224
- +AA FPKM (gene HLA-DRB3, −AA FPKM 159): 365 FPKM
- Log2 (+AA/−AA) (gene IFI27, Qvalue 3.56E−04): 4.638
- +AA FPKM (gene IFI27, −AA FPKM 15): 377 FPKM
- Log2 (+AA/−AA) (gene IFITM3, Qvalue 6.61E−06): 1.496
- +AA FPKM (gene IFITM3, −AA FPKM 494): 1383 FPKM
- Log2 (+AA/−AA) (gene IL2RG, Qvalue 0.001778062): 0.785
- +AA FPKM (gene IL2RG, −AA FPKM 122): 209 FPKM
- Log2 (+AA/−AA) (gene ITGB2, Qvalue 9.28E−04): 0.599
- +AA FPKM (gene ITGB2, −AA FPKM 433): 654 FPKM
- Log2 (+AA/−AA) (gene LGALS3, Qvalue 5.07E−04): 1.667
- +AA FPKM (gene LGALS3, −AA FPKM 62.3833): 199.3967 FPKM
- Log2 (+AA/−AA) (gene LGALS3BP, Qvalue 5.08E−05): 1.001
- +AA FPKM (gene LGALS3BP, −AA FPKM 155): 310 FPKM
- Log2 (+AA/−AA) (gene MX1, Qvalue 0.026353098): 2.341
- +AA FPKM (gene MX1, −AA FPKM 42): 212 FPKM
- Log2 (+AA/−AA) (gene NCF1, Qvalue 0.015338721): 0.659
- +AA FPKM (gene NCF1, −AA FPKM 131): 207 FPKM
- Log2 (+AA/−AA) (gene PRDX1, Qvalue 0.009710824): 1.094
- +AA FPKM (gene PRDX1, −AA FPKM 106): 227 FPKM
- Log2 (+AA/−AA) (gene PSAP, Qvalue 7.31E−04): 0.802
- +AA FPKM (gene PSAP, −AA FPKM 600): 1044 FPKM
- Log2 (+AA/−AA) (gene RETN, Qvalue 0.035172121): 0.766
- +AA FPKM (gene RETN, −AA FPKM 244): 414 FPKM
- Log2 (+AA/−AA) (gene S100A11, Qvalue 0.024890893): 0.525
- +AA FPKM (gene S100A11, −AA FPKM 732): 1054 FPKM
- Log2 (+AA/−AA) (gene SERPING1, Qvalue 2.30E−05): 1.387
- +AA FPKM (gene SERPING1, −AA FPKM 181): 471 FPKM
- Log2 (+AA/−AA) (gene SOD2, Qvalue 0.017321675): 1.145
- +AA FPKM (gene SOD2, −AA FPKM 129): 301 FPKM
- Log2 (+AA/−AA) (gene TYMP, Qvalue 0.016368204): 0.679
- +AA FPKM (gene TYMP, −AA FPKM 348): 553 FPKM
- number of TLR7 and TLR9 pathway genes statistically significantly expressed (of 54 selected genes, AA in media during HSPC-pDC generation): 17 genes
